Tests used:
[1] = test system: IPEX and secondary conditions related to IPEX; assay: Administration of effective amounts to subjects with IPEX (additional studies); type: in vivo; conditions: diabetes, thyroid dysfunction, enteropathy, eczema and others
[2] = test system: effector memory T cells (TEM); assay: Kv1.3 expression, cytokine production and proliferation of TEM in activated PBMCs from IPEX subjects, with or without ShK-186 (flow cytometry, RT-QPCR); type: cell-based, human
Protocol: This example is performed to evaluate the expression of Kv1.3 channels by TEM found in IPEX subjects compared to controls, and to characterize the responsiveness of IPEX subject samples to treatment with therapeutic peptides such as the ShK-based peptide, ShK-186, formulated into a pharmaceutical composition. To evaluate Kv1.3 expression, peripheral blood mononuclear cells from IPEX and healthy controls are isolated. In the first phase of the example, the cells are activated in vitro with anti-CD3 antibodies or mitogens and then subjected to immunostaining and multicolor flow cytometry.
In the second phase, matching cell aliquots are analyzed by RT-QPCR for quantitation of Kv1.3 mRNA. In the third phase, matching cell aliquots are used to study the ability of ShK-186 to block the proinflammatory and proliferative potential of TEM from IPEX subjects versus controls. Cytokines (IFN-γ and IL-2, -4, -10, -17, and -21) and perforin are detected by intracellular cytokine staining and flow cytometry in resting or activated cells in the presence or absence of ShK-186. In this example, ten IPEX and ten normal controls are studied.
Peripheral blood mononuclear cells (PBMCs) are evaluated by multiparameter flow cytometry for cell surface expression of CD4 and CD25 and intracellular FOXP3. FACS sorting of all stimulated and stained samples will also be performed.

(L-PhosphoTyr)-AEEAc-RSCIDTIPKSRCTAFQCKHSMKYRLSFCRKTCGTC-amide [ShK-186]
clinically relevant improvements in IPEX and secondary conditions related to IPEX [1]: produces clinically relevant improvements
proliferation of TEM ([2]; PBMCs from IPEX subjects vs controls): reduces
expression of Kv1.3 channels by TEM ([2]; PBMCs from IPEX subjects vs healthy controls, activated with anti-CD3 antibodies or mitogens): reduces
IFN-γ and IL-2, -4, -10, -17, and/or -21 production by TEM ([2]; intracellular cytokine staining and flow cytometry, resting or activated cells): reduces

From patent US20160000869A1, “METHODS OF TREATING IPEX SYNDROME USING TOXIN-BASED PHARMACEUTICAL COMPOSITIONS” (KINETA ONE, LLC, priority 2013, published 2016)
